ChEMBL document CHEMBL4219042, “Advances in macrocyclic peptide-based antibiotics” (2018)

Experiments:
Format in all cases: functional
[1] = tested on: Escherichia coli; test: Antibacterial activity against multidrug-resistant Escherichia coli 5539 after 16 to 20 hrs by agar dilution method
[2] = tested on: Escherichia coli; test: Antibacterial activity against multidrug-resistant Escherichia coli 5237 after 16 to 20 hrs by agar dilution method
[3] = tested on: Pseudomonas aeruginosa; test: Antibacterial activity against multidrug-resistant Pseudomonas aeruginosa 5313 after 16 to 20 hrs by agar dilution method
[4] = tested on: Pseudomonas aeruginosa; test: Antibacterial activity against multidrug-resistant Pseudomonas aeruginosa 5215 after 16 to 20 hrs by agar dilution method
[5] = tested on: Pseudomonas aeruginosa; test: Antibacterial activity against multidrug-resistant Pseudomonas aeruginosa 5510 after 16 to 20 hrs by agar dilution method
[6] = tested on: Escherichia coli; test: Antibacterial activity against multidrug-resistant Escherichia coli 5353 after 16 to 20 hrs by agar dilution method
[7] = tested on: Pseudomonas aeruginosa; test: Antibacterial activity against multidrug-resistant Pseudomonas aeruginosa 5298 after 16 to 20 hrs by agar dilution method
[8] = tested on: Pseudomonas aeruginosa; test: Antibacterial activity against multidrug-resistant Pseudomonas aeruginosa 5585 after 16 to 20 hrs by agar dilution method
[9] = tested on: Escherichia coli; test: Antibacterial activity against multidrug-resistant Escherichia coli 5364 after 16 to 20 hrs by agar dilution method

Measured: MIC

CCC(C)CCC(O)CC(=O)N[C@H](CCN)C(=O)N[C@H]1CCNC(=O)[C@H](CC(C)C)NC(=O)[C@H](CCN)NC(=O)[C@H](CCN)NC(=O)[C@@H](Cc2ccccc2)NC(=O)[C@H](CC(C)C)NC(=O)[C@H](CCN)NC1 (some centres undefined)
2 to 4 µg/mL: [1] | [2] | [3] | [4] | [5] | [6] | [7] | [8] | [9]
